From patent publication US11130759B1, “2-oxoquinazoline derivatives as methionine adenosyltransferase 2A inhibitors” (IDEAYA BIOSCIENCES, INC., priority 2018, dated 2021)

Target: Human MAT2A (Homo sapiens (Human), UniProt P31153)
Assay: Phosphate Sensor Fluorescence Assay (MAT2A enzyme inhibition)
Assay type: biochemical
Conditions: L-methionine 500 uM, ATP 500 uM
Procedure: The ability of the compound of present disclosure to inhibit MAT2A enzyme was determined using the Malachite Green or Phosphate Sensor Fluorescence Assay described below.
B. Phosphate Sensor Fluorescence Assay
MAT2A enzyme is incubated with a test compound in DMSO or DMSO and its substrates (L-methionine and ATP) in a microtiter plate. The enzymatic reaction is stopped by the addition of Working Phosphate Sensor Mixture. The plate is analyzed for fluorescence at 450 nm.
Assay Buffer: 50 mM Tris, pH 7.5/50 mM KCl/10 mM MgCl2/0.01% Brij-35/1 mM DTT/0.1% BGG/40 nM PNP/6 uM 7-MEG
L-methionine: 500 uM before the addition of Working Phosphate Sensor Mixture
ATP: 500 uM before the addition of Working Phosphate Sensor Mixture
Test compounds or DMSO were added to the appropriate well suing D300e digital dispenser. 5 μl/well of Assay Buffer was added to the wells corresponding to the negative control and 5 μl/well of MAT2A was added to all the wells except for those corresponding to the negative control. After incubating the plate at room temperature for 15 minutes, 5 μl/well of the 1 mM L-methionine/1 mM ATP mixture was added to all wells. The plate was centrifuged at 1000 rpm for 1 minute and then incubated at room temperature for 1 hour. 5 μl of the Working Phosphate Sensor Mixture was added to all wells and the plate was centrifuged at 1000 rpm for 1 minute. The plate was read for fluorescence at 450 nm after exciting at 430 nm.
Percent inhibition was calculated in Chemical and Biological Information System (CBIS), (ChemInnovation Software Inc.). Curves were fitted by CBIS as % inhibition vs. log [compound concentration] using a 4-parameter inhibition model. Fit=(A+((B−A)/(1+((C/x)^D)))) Res=(y−fit)

Human MAT2A, sequence (P31153 whole entry): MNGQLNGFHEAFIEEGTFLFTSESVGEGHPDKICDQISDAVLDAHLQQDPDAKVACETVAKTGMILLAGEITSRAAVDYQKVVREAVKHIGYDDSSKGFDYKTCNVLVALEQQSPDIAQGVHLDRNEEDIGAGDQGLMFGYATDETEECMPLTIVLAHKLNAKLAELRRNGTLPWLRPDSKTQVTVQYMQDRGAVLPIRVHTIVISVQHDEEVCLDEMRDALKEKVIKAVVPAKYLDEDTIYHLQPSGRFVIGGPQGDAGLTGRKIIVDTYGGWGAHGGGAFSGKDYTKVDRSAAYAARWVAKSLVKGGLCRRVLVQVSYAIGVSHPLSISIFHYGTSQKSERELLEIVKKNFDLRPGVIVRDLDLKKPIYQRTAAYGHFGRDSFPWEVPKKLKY

IC50 (numeric bound)	IC50 (class symbols)	Molecule
> 10 µM		8-chloro-1-(2-chlorophenyl)-7- (trifluoro-methyl)pyrido[2,3- d]pyrimidine-2,4(1H,3H)-dione-1 [Example 360]
	< 0.2 µM	CCCc1ccc2c(N(C)C)nc(=O)n(-c3ccccc3)c2c1 [compound 98]
	< 0.2 µM	O=c1nc(N2CC[C@@H](O)C2)c2ccc(Cl)cc2n1-c1ccccc1O [compound 152]
